Measured values published in patent US20240139185A1, “COMPOUNDS THAT PARTICIPATE IN COOPERATIVE BINDING AND USES THEREOF” (Revolution Medicines, Inc., priority 2018, published 2024).

Key:
[1] = molecular target: cyclophilin A (CYPA) (Homo sapiens, UniProt P62937); assay: CYPA-compound binary complex formation by SPR; conditions: read-out: CYPA Binding Affinity
Summary of the method: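 CypA-Avi captured on a Biotin CAPture chip (4 μg/ml), reference flow cell subtracted. Compounds injected as 10-point 2-fold dilutions from 50 μM in HBS-P+ pH7.4 with 2% DMSO; 60 s association and 60 s dissociation, solvent-corrected. Affinity obtained by steady-state fitting.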

[2] = molecular target: T1, BRAF-GTP-KRAS-G12C complex (Homo sapiens, UniProt P01116+P62937, G12C); assay: KRAS-BRAF complex disruption through competition with CYPA-compound by TR-FRET; conditions: biochemical BRAF-KRAS G12C-GTP disruption assay EC50, with CYPA
T1 construct: 50 nM of His6-KRas G12C-GTP (1-169); 500 nM of tagless CypA (1-165)
Summary of the method: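 His6-KRAS G12C-GTP (1-169, 50 nM) with tagless CypA (1-165, 500 nM) was incubated with compound for 3 h at room temperature in pH 7.3 Hepes/NaCl/MgCl2 buffer containing GST-BRAF RBD. Anti-His Eu (10 nM) and anti-GST APC (50 nM) were then added for 1.5 h, and the 665/615 nm TR-FRET ratio was read. EC50 from 4-parameter fit; for specificity, wild-type KRAS replaced G12C, and CypA was omitted to test presenter dependence.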

Compound | Kd [1] [µM] | EC50 [2] [µM]
CC1COC(=O)C2CCCN(N2)C(=O)C(NC(=O)C(C(C)C)N(C)C(=O)C2CN(C(=O)CCl)C2)Cc2cc(O)cc(c2)-c2ccc3c(S(C)(=O)=O)cn(c3c2)C1 (single isomer, unassigned) [Compound 110] | ≤ 5 | ≤ 0.5
CC1COC(=O)C2CCCN(N2)C(=O)C(NC(=O)C(C(C)C)N(C)C(=O)C2CN(C(=O)CCl)C2)Cc2cc(O)cc(c2)-c2ccc3c(c2)c(cn3CC2COC2)C1 (mixture of isomers) [Compound 226] | ≤ 5 | ≤ 0.5
